Measured values reported in US11345756B2, “CCR3 inhibition for ocular angiogenesis and macular degeneration” (University of Kentucky Research Foundation, priority 2006, dated 2022).

Test system: CNV (choroidal neovascularization)
Assay: Laser-induced CNV volume, confocal evaluation of isolectin B4 stained RPE-choroid flatmounts
Type: in vivo
Conditions: C57BL/6J mice, laser injury, blockade of CCR3 ligand by neutralizing antibody injected into the vitreous humor; compared to control antibodies, all Ps<0.001
Experimental: Laser photocoagulation (532 nm, 200 mW, 100 ms, 75 μm) (OCULIGHT™ GL, Index Corporation) was performed (volume studies: 3/eye; protein analyses/flow cytometry: 12/eye) on both eyes of each animal to induce CNV (choroidal neovascularization). CNV volumes were measured by scanning laser confocal microscope (TCS SP, Leica) with 0.5% FITC-Griffonia simplicifolia Isolectin B4 (Vector Laboratories). CNV was induced by laser injury in C57BL/6J and Ccr3^−/− mice and volumes measured 7 days later by confocal evaluation of Griffonia simplicifolia Isolectin B4 staining of RPE-choroid flatmounts. Neutralizing antibodies (Ab) against CCR3, eotaxin (CCL-11), eotaxin-2 (CCL-24), RANTES, MCP-3 or control goat IgG or rat IgG2a were injected into the vitreous humor following injury.
Because the probability of each laser lesion developing CNV is influenced by the group to which it belongs, the mouse, the eye, and the laser spot, the mean lesion volumes were compared using a linear mixed model with a split plot repeated measures design. The whole plot factor was the genetic group to which the animal belonged while the split plot factor was the eye. Statistical significance was determined at the 0.05 level. Post hoc comparison of means was constructed with a Bonferroni adjustment for multiple comparisons.

eotaxin
suppression of CNV: 45%
